ChEMBL document CHEMBL1155437, “Anti-infective discorhabdins from a deep-water alaskan sponge of the genus Latrunculia” (J Nat Prod, 2010)
In brackets after ≈: the same amount, converted by molar mass. Activity calls are given as the source filed them. No cut-off for these calls is given here.

Tests used:
[1] = test system: Mycobacterium intracellulare; assay: Antibacterial activity against Mycobacterium intracellular by after 4 days alamar blue assay; format: functional, organism-based
Staphylococcus aureus = assay: Antibacterial activity against methicillin-resistant Staphylococcus aureus by modified NCCLS method; format: functional, organism-based
Vero = assay: Cytotoxicity against african green monkey Vero cells by neutral red assay; format: cell-based; conditions: Chlorocebus sabaeus
Mus musculus [2] = assay: Toxicity in Plasmodium berghei infected mice (Mus musculus) at 10 mg/kg, perorally or subcutaneously administered 2 hrs post infection; format: organism-based; design: dose 10 mg/kg, route oral; conditions: in vivo, po
[3] = Selectivity index, ratio of IC50 for african green monkey (Cercopithecus aethiops) Vero cells to IC50 for chloroquine-sensitive Plasmodium falciparum D6; format: toxicity, cell-based; conditions: read-out: Ratio IC50
Mus musculus [4] = assay: Toxicity in Plasmodium berghei infected mice (Mus musculus) assessed as mortality at 10 mg/kg, perorally or subcutaneously QD for 2 days measured on day 3; format: organism-based; design: dose 10 mg/kg, route oral; conditions: in vivo, po, 48 h
Mus musculus [5] = assay: Toxicity in Plasmodium berghei infected mice (Mus musculus) assessed as mortality at 10 mg/kg, perorally or subcutaneously QD for 2 days measured on day 4; format: organism-based; design: dose 10 mg/kg, route oral; conditions: in vivo, po, 48 h
Mus musculus [6] = assay: Toxicity in Plasmodium berghei infected mice (Mus musculus) assessed as reduction of movements at 10 mg/kg, perorally or subcutaneously QD on day 1; format: organism-based; design: dose 10 mg/kg, route oral; conditions: in vivo, po
Plasmodium falciparum [7] = assay: Antimalarial activity against chloroquine-sensitive Plasmodium falciparum D6 assessed as parasite LDH activity after 72 hrs by malstat reagent method; format: functional, organism-based; conditions: D6, 72 h
[8] = Selectivity index, ratio of IC50 for african green monkey (Cercopithecus aethiops) Vero cells to IC50 for chloroquine-resistant Plasmodium falciparum W2; format: toxicity, cell-based; conditions: read-out: Ratio IC50
[9] = test system: Mycobacterium tuberculosis; assay: Antituberculosis activity against Mycobacterium tuberculosis H37Rv after 4 days by alamar blue assay; format: functional, organism-based; conditions: 96 h
[10] = Cytotoxicity against human HuH7 cells at 10 uM after 5 days by RT-PCR; format: cell-based; conditions: huh-7, 120 h
Hepatitis C virus = assay: Antiviral activity against HCV infected in human HuH7 clone B cells assessed as inhibition of viral RNA replication after 5 days by RT-PCR based replicon assay relative to control; format: functional, Hepacivirus hominis; conditions: Huh-7, 120 h
Mus musculus [11] = assay: Toxicity in Plasmodium berghei infected mice (Mus musculus) assessed as dehydration at 10 mg/kg, perorally or subcutaneously QD on day 1; format: organism-based; design: dose 10 mg/kg, route oral; conditions: in vivo, po
Plasmodium falciparum [12] = assay: Antimalarial activity against chloroquine-resistant Plasmodium falciparum W2 assessed as parasite LDH activity after 72 hrs by malstat reagent method; format: functional, organism-based; conditions: W2, 72 h
Mus musculus [13] = assay: Toxicity in Plasmodium berghei infected mice (Mus musculus) assessed as loss of weight at 10 mg/kg, perorally or subcutaneously QD on day 1; format: organism-based; design: dose 10 mg/kg, route oral; conditions: in vivo, po
Mus musculus [14] = assay: Toxicity in Plasmodium berghei infected mice (Mus musculus) at 10 mg/kg, perorally or subcutaneously QD for 2 days measured on day 5; format: organism-based; design: dose 10 mg/kg, route oral; conditions: in vivo, po, 48 h
Mus musculus [15] = assay: Toxicity in Plasmodium berghei infected mice (Mus musculus) assessed as loss of weight at 10 mg/kg, perorally or subcutaneously QD for 2 days measured on day 5; format: organism-based; design: dose 10 mg/kg, route oral; conditions: in vivo, po, 48 h
Plasmodium berghei = assay: Antimalarial activity against Plasmodium berghei infected in mice (Mus musculus) assessed as parasitaemia at 10 mg/kg, perorally or subcutaneously administered 2 hrs post infection daily for 2 days measured on day 5 by microscopy; format: functional; conditions: route oral
Mus musculus [16] = assay: Toxicity in Plasmodium berghei infected mice (Mus musculus) at 10 mg/kg, perorally or subcutaneously QD for 2 days measured on day 2; format: organism-based; design: dose 10 mg/kg, route oral; conditions: in vivo, po, 48 h
[17] = Mycobacterium intracellulare, 96 h
[18] = Mycobacterium intracellulare, 96 h, read-out: IC50

Compound	MIC [1, 17] [µM]	IC50 (Staphylococcus aureus) [nM]	MIC (Staphylococcus aureus) [µM]	IC50 (Vero) [nM]	Activity (Mus musculus [2])	selectivity ratio [3]	IC50 (Plasmodium falciparum [7]) [nM]	selectivity ratio [8]	MIC [9] [µM]	Activity [10]	EC90 (Hepatitis C virus) [nM]	IC50 (Plasmodium falciparum [12]) [nM]	IC50 [1, 18] [nM]	further results
O=C(O)c1cn(C2CC2)c2cc(N3CCNCC3)c(F)cc2c1=O [CIPROFLOXACIN]	1.5 (≈ 0.497 µg/mL)	1100	3 (≈ 0.994 µg/mL)	–	–	–	–	–	–	–	–	–	–	–
O=C1C2=C(C3=NCCc4c[nH]c1c43)C1(C=C(Br)C(O)C(Br)=C1)CCN2 (configuration not stated) [DIHYDRODISCORHABDIN C]	–	13000	–	9800	Non-toxic	58	170	75	14 (≈ 6.51 µg/mL)	Active	< 10000	130	–	Activity (Mus musculus [4]): Toxic; Activity (Mus musculus [5]): Toxic; Activity (Mus musculus [6]): Toxic; IC50 [1]: Not Active; MIC [1]: inactive; Activity (Mus musculus [11]): Toxic; Activity (Mus musculus [13]): Toxic
O=C1C(Br)=CC2(C=C1Br)CCNC1=C2C2=NCCc3c[nH]c(c32)C1=O [DISCORHABDIN C]	0.17 (≈ 0.0787 µg/mL)	3200	11 (≈ 5.09 µg/mL)	2800	–	1	2800	1.4	8 (≈ 3.71 µg/mL)	Active	< 10000	2000	130	IC50 [9]: 6800 nM
O=C1C[C@H]2S[C@H]3C[C@]2(C=C1Br)C1=C(N3)C(=O)c2[nH]cc3c2C1=NCC3 [DISCORHABDINE A]	0.74 (≈ 0.308 µg/mL)	4800	12 (≈ 5 µg/mL)	6800	Non-toxic	130	53	130	7.7 (≈ 3.21 µg/mL)	Active	< 10000	53	360	Activity (Mus musculus [14]): Toxic; Activity (Mus musculus [15]): > 25%; Activity (Plasmodium berghei): 6.6%; Activity (Mus musculus [16]): Toxic
NNC(=O)c1ccncc1 [ISONIAZID]	–	–	–	–	–	–	–	–	3.2 (≈ 0.439 µg/mL)	–	–	–	–	–
CO[C@H]1/C=C/O[C@@]2(C)Oc3c(C)c(O)c4c(O)c(c(/C=N/N5CCN(C)CC5)c(O)c4c3C2=O)NC(=O)/C(C)=C\C=C\[C@H](C)[C@H](O)[C@@H](C)[C@@H](O)[C@@H](C)[C@H](OC(C)=O)[C@@H]1C [RIFAMPIN]	–	–	–	–	–	–	–	–	0.21 (≈ 0.173 µg/mL)	–	–	–	–	–
